ChEMBL document CHEMBL3885861, “Open TG-GATES”

Species: Rattus norvegicus
Assay: Open TG-GATES - Regimen: Daily Repeat
Type: toxicity, organism-based, Sprague-Dawley
Parameters: regimen Daily Repeat, gender Male, age 6 weeks
Conditions: in vivo, po, route gavage; for APTT / Bas / Eos / Fbg / Hb / Ht / Lym / MCH / MCHC / MCV / Mono / Neu / PT / Plat / RBC / Ret / WBC: tissue Blood; for KIDNEY_L / KIDNEY_R / KIDNEY_TOTAL: tissue Kidney; for LIVER: tissue Liver; for A/G / ALP / ALT / AST / BUN / CRE / Ca / Cl / DBIL / GLC / IP / K / LDH / Na / PL / RALB / TBIL / TC / TG / TP / gamma-GTP: tissue Plasma
[1] = 0 mg/kg, 72 h, dose level Control, time 3 day
[2] = 0 mg/kg, […], dose level Control, time 7 day
[3] = 0 mg/kg, […], dose level Control, time 14 day
[4] = 0 mg/kg, […], dose level Control, time 28 day
[5] = 400 mg/kg, 72 h, dose level Low, time 3 day
[6] = 400 mg/kg, […], dose level Low, time 7 day
[7] = 400 mg/kg, […], dose level Low, time 14 day
[8] = 400 mg/kg, […], dose level Low, time 28 day

CCO [ALCOHOL]
TERMINAL_BW [1]: 232.9 g
APTT [1]: 17.2 s
Bas [1]: 0%
Eos [1]: 1%
Fbg [1]: 205.6 mg/dL
Hb [1]: 14.1 g/dL
Ht [1]: 41.9%
Lym [1]: 77%
MCH [1]: 21.5 pg
MCHC [1]: 33.7%
MCV [1]: 63.8 fL
Mono [1]: 6%
Neu [1]: 16%
PT [1]: 11 s
Plat [1]: 112.5 x10_4/uL
RBC [1]: 656.4 x10_4/ul
Ret [1]: 6.7%
WBC [1]: 82.3 x10_2/uL
KIDNEY_L [1]: 1 g
KIDNEY_R [1]: 1 g
KIDNEY_TOTAL [1]: 2 g
LIVER [1]: 11.2 g
A/G [1]: 2.2
ALP [1]: 935.2 IU/L
ALT [1]: 39.6 IU/L
AST [1]: 61.8 IU/L
BUN [1]: 19.6 mg/dL
CRE [1]: 0.6 mg/dL
Ca [1]: 10.9 mg/dL
Cl [1]: 104.2 meq/L
DBIL [1]: 0.04 mg/dL
GLC [1]: 210.6 mg/dL
IP [1]: 8.7 mg/dL
K [1]: 4.6 meq/L
LDH [1]: 75.8 IU/L
Na [1]: 141 meq/L
PL [1]: 160.6 mg/dL
RALB [1]: 3.9 g/dL
TBIL [1]: 0.3 mg/dL
TC [1]: 83.8 mg/dL
TG [1]: 101 mg/dL
TP [1]: 5.7 g/dL
gamma-GTP [1]: 1.2 IU/L
TERMINAL_BW [2]: 263.1 g
TERMINAL_BW [3]: 302.6 g
TERMINAL_BW [4]: 359.3 g
APTT [2]: 17 s
Bas [2]: 0%
Eos [2]: 1.2%
Fbg [2]: 212.6 mg/dL
Hb [2]: 14.2 g/dL
Ht [2]: 42.2%
Lym [2]: 84.2%
MCH [2]: 20.7 pg
MCHC [2]: 33.7%
MCV [2]: 61.5 fL
Mono [2]: 4%
Neu [2]: 10.6%
PT [2]: 11.1 s
Plat [2]: 127.1 x10_4/uL
RBC [2]: 687.8 x10_4/ul
Ret [2]: 5.2%
WBC [2]: 114.9 x10_2/uL
APTT [3]: 19.1 s
Bas [3]: 0%
Eos [3]: 1%
Fbg [3]: 211.2 mg/dL
Hb [3]: 15.2 g/dL
Ht [3]: 44.7%
Lym [3]: 81.4%
MCH [3]: 20.3 pg
MCHC [3]: 33.9%
MCV [3]: 59.9 fL
Mono [3]: 4.2%
Neu [3]: 13.4%
PT [3]: 11.4 s
Plat [3]: 110 x10_4/uL
RBC [3]: 746.4 x10_4/ul
Ret [3]: 4.3%
WBC [3]: 102.7 x10_2/uL
APTT [4]: 17 s
Bas [4]: 0%
Eos [4]: 1.6%
Fbg [4]: 215.6 mg/dL
Hb [4]: 15.4 g/dL
Ht [4]: 45.5%
Lym [4]: 82%
MCH [4]: 19.1 pg
MCHC [4]: 33.9%
MCV [4]: 56.4 fL
Mono [4]: 5.4%
Neu [4]: 11%
PT [4]: 11.2 s
Plat [4]: 114.3 x10_4/uL
RBC [4]: 807 x10_4/ul
Ret [4]: 8%
WBC [4]: 105.1 x10_2/uL
KIDNEY_L [2]: 1.1 g
KIDNEY_R [2]: 1.2 g
KIDNEY_TOTAL [2]: 2.3 g
KIDNEY_L [3]: 1.2 g
KIDNEY_R [3]: 1.2 g
KIDNEY_TOTAL [3]: 2.4 g
KIDNEY_L [4]: 1.3 g
KIDNEY_R [4]: 1.3 g
KIDNEY_TOTAL [4]: 2.6 g
LIVER [2]: 11.9 g
LIVER [3]: 13.2 g
LIVER [4]: 13.9 g
A/G [2]: 2.2
ALP [2]: 783 IU/L
ALT [2]: 33.6 IU/L
AST [2]: 62 IU/L
BUN [2]: 20.4 mg/dL
CRE [2]: 0.5 mg/dL
Ca [2]: 10.4 mg/dL
Cl [2]: 105.6 meq/L
DBIL [2]: 0.006 mg/dL
GLC [2]: 197.8 mg/dL
IP [2]: 7.5 mg/dL
K [2]: 4.7 meq/L
LDH [2]: 81.2 IU/L
Na [2]: 141.4 meq/L
PL [2]: 143.6 mg/dL
RALB [2]: 4 g/dL
TBIL [2]: 0.4 mg/dL
TC [2]: 71.4 mg/dL
TG [2]: 108 mg/dL
TP [2]: 5.7 g/dL
gamma-GTP [2]: 0.8 IU/L
A/G [3]: 1.9
ALP [3]: 678.2 IU/L
ALT [3]: 30 IU/L
AST [3]: 61.8 IU/L
BUN [3]: 19 mg/dL
CRE [3]: 0.5 mg/dL
Ca [3]: 10.6 mg/dL
Cl [3]: 105.6 meq/L
DBIL [3]: 0.028 mg/dL
GLC [3]: 204.6 mg/dL
IP [3]: 7.3 mg/dL
K [3]: 4.4 meq/L
LDH [3]: 80.2 IU/L
Na [3]: 142.6 meq/L
PL [3]: 138.6 mg/dL
RALB [3]: 3.8 g/dL
TBIL [3]: 0.4 mg/dL
TC [3]: 64.4 mg/dL
TG [3]: 120.6 mg/dL
TP [3]: 5.9 g/dL
gamma-GTP [3]: 0.6 IU/L
A/G [4]: 1.5
ALP [4]: 606.4 IU/L
ALT [4]: 32 IU/L
AST [4]: 61.2 IU/L
BUN [4]: 20.4 mg/dL
CRE [4]: 0.6 mg/dL
Ca [4]: 10.5 mg/dL
Cl [4]: 107 meq/L
DBIL [4]: 0 mg/dL
GLC [4]: 219.2 mg/dL
IP [4]: 6.1 mg/dL
K [4]: 4.3 meq/L
LDH [4]: 81.2 IU/L
Na [4]: 140.8 meq/L
PL [4]: 148 mg/dL
RALB [4]: 3.7 g/dL
TBIL [4]: 0.2 mg/dL
TC [4]: 76.2 mg/dL
TG [4]: 148.8 mg/dL
TP [4]: 6.1 g/dL
gamma-GTP [4]: 1.6 IU/L
TERMINAL_BW [5]: 236 g
APTT [5]: 17.7 s
Bas [5]: 0%
Eos [5]: 1%
Fbg [5]: 209.2 mg/dL
Hb [5]: 13.4 g/dL
Ht [5]: 39.9%
Lym [5]: 73.4%
MCH [5]: 21.9 pg
MCHC [5]: 33.7%
MCV [5]: 65 fL
Mono [5]: 8.4%
Neu [5]: 17%
PT [5]: 11.1 s
Plat [5]: 134.3 x10_4/uL
RBC [5]: 614.8 x10_4/ul
Ret [5]: 7.6%
WBC [5]: 100.6 x10_2/uL
KIDNEY_L [5]: 1 g
KIDNEY_R [5]: 1.1 g
KIDNEY_TOTAL [5]: 2.1 g
LIVER [5]: 11.5 g
A/G [5]: 2.3
ALP [5]: 965.4 IU/L
ALT [5]: 33 IU/L
AST [5]: 63.8 IU/L
BUN [5]: 17.2 mg/dL
CRE [5]: 0.5 mg/dL
Ca [5]: 11.1 mg/dL
Cl [5]: 104.4 meq/L
DBIL [5]: 0.022 mg/dL
GLC [5]: 198 mg/dL
IP [5]: 7.9 mg/dL
K [5]: 4.5 meq/L
LDH [5]: 103.4 IU/L
Na [5]: 140.6 meq/L
PL [5]: 140.6 mg/dL
RALB [5]: 4 g/dL
TBIL [5]: 0.3 mg/dL
TC [5]: 73 mg/dL
TG [5]: 82.8 mg/dL
TP [5]: 5.7 g/dL
gamma-GTP [5]: 2.4 IU/L
TERMINAL_BW [6]: 263.9 g
TERMINAL_BW [7]: 307 g
TERMINAL_BW [8]: 352 g
APTT [6]: 17.6 s
Bas [6]: 0%
Eos [6]: 0.8%
Fbg [6]: 219.6 mg/dL
Hb [6]: 14.1 g/dL
Ht [6]: 41.5%
Lym [6]: 79.6%
MCH [6]: 21.1 pg
MCHC [6]: 34.1%
MCV [6]: 62 fL
Mono [6]: 5.2%
Neu [6]: 14.2%
PT [6]: 11.2 s
Plat [6]: 133.9 x10_4/uL
RBC [6]: 669.2 x10_4/ul
Ret [6]: 5.7%
WBC [6]: 101.8 x10_2/uL
APTT [7]: 16.7 s
Bas [7]: 0%
Eos [7]: 1%
Fbg [7]: 217.6 mg/dL
Hb [7]: 15 g/dL
Ht [7]: 43.7%
Lym [7]: 80.6%
MCH [7]: 20.2 pg
MCHC [7]: 34.3%
MCV [7]: 58.9 fL
Mono [7]: 5.6%
Neu [7]: 12.8%
PT [7]: 11.3 s
Plat [7]: 127.7 x10_4/uL
RBC [7]: 742.4 x10_4/ul
Ret [7]: 4.2%
WBC [7]: 122.9 x10_2/uL
APTT [8]: 17.2 s
Bas [8]: 0%
Eos [8]: 1.6%
Fbg [8]: 212 mg/dL
Hb [8]: 15.7 g/dL
Ht [8]: 46.9%
Lym [8]: 80.4%
MCH [8]: 18.8 pg
MCHC [8]: 33.6%
MCV [8]: 55.9 fL
Mono [8]: 6%
Neu [8]: 12.4%
PT [8]: 11.3 s
Plat [8]: 126.5 x10_4/uL
RBC [8]: 839 x10_4/ul
Ret [8]: 7.1%
WBC [8]: 104.7 x10_2/uL
KIDNEY_L [6]: 1.1 g
KIDNEY_R [6]: 1.1 g
KIDNEY_TOTAL [6]: 2.2 g
KIDNEY_L [7]: 1.2 g
KIDNEY_R [7]: 1.2 g
KIDNEY_TOTAL [7]: 2.3 g
KIDNEY_L [8]: 1.3 g
KIDNEY_R [8]: 1.3 g
KIDNEY_TOTAL [8]: 2.6 g
LIVER [6]: 12.6 g
LIVER [7]: 13.1 g
LIVER [8]: 13.5 g
A/G [6]: 2.3
ALP [6]: 771.4 IU/L
ALT [6]: 33.2 IU/L
AST [6]: 63.4 IU/L
BUN [6]: 20.8 mg/dL
CRE [6]: 0.5 mg/dL
Ca [6]: 10.6 mg/dL
Cl [6]: 104.6 meq/L
DBIL [6]: 0 mg/dL
GLC [6]: 197 mg/dL
IP [6]: 8.1 mg/dL
K [6]: 4.7 meq/L
LDH [6]: 95 IU/L
Na [6]: 141.6 meq/L
PL [6]: 158.2 mg/dL
RALB [6]: 4.1 g/dL
TBIL [6]: 0.4 mg/dL
TC [6]: 76.2 mg/dL
TG [6]: 156.4 mg/dL
TP [6]: 5.8 g/dL
gamma-GTP [6]: 1.4 IU/L
A/G [7]: 2
ALP [7]: 804.6 IU/L
ALT [7]: 36 IU/L
AST [7]: 59.2 IU/L
BUN [7]: 19.2 mg/dL
CRE [7]: 0.5 mg/dL
Ca [7]: 11 mg/dL
Cl [7]: 105.2 meq/L
DBIL [7]: 0.028 mg/dL
GLC [7]: 207.4 mg/dL
IP [7]: 7.4 mg/dL
K [7]: 4.2 meq/L
LDH [7]: 103.2 IU/L
Na [7]: 142.2 meq/L
PL [7]: 150.8 mg/dL
RALB [7]: 3.9 g/dL
TBIL [7]: 0.4 mg/dL
TC [7]: 73 mg/dL
TG [7]: 116.8 mg/dL
TP [7]: 5.9 g/dL
gamma-GTP [7]: 0.6 IU/L
A/G [8]: 1.6
ALP [8]: 710 IU/L
ALT [8]: 30.2 IU/L
AST [8]: 64 IU/L
BUN [8]: 20 mg/dL
CRE [8]: 0.6 mg/dL
Ca [8]: 10.4 mg/dL
Cl [8]: 107 meq/L
DBIL [8]: 0.002 mg/dL
GLC [8]: 205.6 mg/dL
IP [8]: 6.4 mg/dL
K [8]: 4.3 meq/L
LDH [8]: 96.4 IU/L
Na [8]: 140.4 meq/L
PL [8]: 141.4 mg/dL
RALB [8]: 3.8 g/dL
TBIL [8]: 0.3 mg/dL
TC [8]: 69.4 mg/dL
TG [8]: 113.6 mg/dL
TP [8]: 6.1 g/dL
gamma-GTP [8]: 1.4 IU/L
